Laboratory results as given in PubChem BioAssay AID2060910 (Molecular Pharmacology Branch, DTP, NCI, 2025).
Several values for one entry are separate records, joined by “and”; a condition that tells them apart may be missing. Equal values may be shown once. Values belong to the compound of their own block, whether it stands above or below them.

Test system: 242566-281-R-J2-PDC complex spheroid viability
Assay: Anticancer human tumor 242566-281-R-J2-PDC patient-derived pancreatic carcinoma cell line growth inhibition [RAS]
Details: for viability, T/C: stronger effect = lower value
Method in brief: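 Agents were tested in combination matrices in half-log decrements from a top concentration at or near clinical Cmax (10 microM if undetermined). Targets were multi-cell spheroids of tumour lines plus HUVEC and MSC stromal cells.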
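Further: spheroids exposed to compound for 7 days before readout.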
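Wherever viability, T/C is given: 100% = DMSO vehicle control wells.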

IC50 (curve of first compound, second compound 0.000949 µM): > 300 nM | IC50 (curve of first compound, second compound 0.003 µM): > 300 nM | IC50 (curve of first compound, second compound 0.00949 µM): < 0.949 nM | IC50 (curve of first compound, second compound 0.03 µM): < 0.949 nM | IC50 (curve of first compound, second compound 0.0949 µM): < 0.949 nM | IC50 (curve of first compound, second compound 0.3 µM): < 0.949 nM
SMILES: CC1(C)CCC(Nc2ncc(C(F)(F)F)c(-c3c[nH]c4c(P(C)(C)=O)c(C#N)ccc34)n2)CN1 (stereo not drawn) + CCn1c(-c2cc(N3CCN(C)CC3)cnc2C(C)OC)c2c3cc(ccc31)-c1csc(n1)CC(NC(=O)C1CC1C)C(=O)N1CCCC(N1)C(=O)OCC(C)(C)C2
viability, T/C (second compound 0.000949 µM, first compound 0.000949 µM): 101% | viability, T/C (second compound 0.000949 µM, first compound 0.003 µM): 98% | viability, T/C (second compound 0.000949 µM, first compound 0.00949 µM): 73.5% | viability, T/C (second compound 0.000949 µM, first compound 0.03 µM): 88% | viability, T/C (second compound 0.000949 µM, first compound 0.0949 µM): 85.3% | viability, T/C (second compound 0.000949 µM, first compound 0.3 µM): 61.3% | viability, T/C (second compound 0.003 µM, first compound 0.000949 µM): 81.6% | viability, T/C (second compound 0.003 µM, first compound 0.003 µM): 69.6% | viability, T/C (second compound 0.003 µM, first compound 0.00949 µM): 63.8% | viability, T/C (second compound 0.003 µM, first compound 0.03 µM): 67.8% | viability, T/C (second compound 0.003 µM, first compound 0.0949 µM): 68.3% | viability, T/C (second compound 0.003 µM, first compound 0.3 µM): 48.8% | viability, T/C (second compound 0.00949 µM, first compound 0.000949 µM): 49.6% | viability, T/C (second compound 0.00949 µM, first compound 0.003 µM): 39.9% | viability, T/C (second compound 0.00949 µM, first compound 0.00949 µM): 45.5% | viability, T/C (second compound 0.00949 µM, first compound 0.03 µM): 39.3% | viability, T/C (second compound 0.00949 µM, first compound 0.0949 µM): 35.5% | viability, T/C (second compound 0.00949 µM, first compound 0.3 µM): 36% | viability, T/C (second compound 0.03 µM, first compound 0.000949 µM): 30.7% | viability, T/C (second compound 0.03 µM, first compound 0.003 µM): 32.9% | viability, T/C (second compound 0.03 µM, first compound 0.00949 µM): 30.2% | viability, T/C (second compound 0.03 µM, first compound 0.03 µM): 27.8% | viability, T/C (second compound 0.03 µM, first compound 0.0949 µM): 19.6% | viability, T/C (second compound 0.03 µM, first compound 0.3 µM): 27.2% | viability, T/C (second compound 0.0949 µM, first compound 0.000949 µM): 22.5% | viability, T/C (second compound 0.0949 µM, first compound 0.003 µM): 24.8% | viability, T/C (second compound 0.0949 µM, first compound 0.00949 µM): 21.6% | viability, T/C (second compound 0.0949 µM, first compound 0.03 µM): 21.6% | viability, T/C (second compound 0.0949 µM, first compound 0.0949 µM): 19.4% | viability, T/C (second compound 0.0949 µM, first compound 0.3 µM): 23.6% | viability, T/C (second compound 0.3 µM, first compound 0.000949 µM): 21.6% | viability, T/C (second compound 0.3 µM, first compound 0.003 µM): 19.4% | viability, T/C (second compound 0.3 µM, first compound 0.00949 µM): 21.3% | viability, T/C (second compound 0.3 µM, first compound 0.03 µM): 17.5% | viability, T/C (second compound 0.3 µM, first compound 0.0949 µM): 18.6% | viability, T/C (second compound 0.3 µM, first compound 0.3 µM): 18.3%

IC50 (curve of compound): > 10000 nM
SMILES: Cc1nc(N2CCC3(CC2)COC(C)C3N)c(CO)nc1Sc1ccnc(N)c1Cl (stereo not drawn)
viability, T/C (compound 0.0316 µM): 119% and 98.2% and 102% (2×) | viability, T/C (compound 0.316 µM): 94.2% [middle of 4 runs] | viability, T/C (compound 1 µM): 85.4% [middle of 4 runs]

IC50 (curve of first compound, second compound 0.0316 µM): > 1000 nM | IC50 (curve of first compound, second compound 0.1 µM): > 1000 nM | IC50 (curve of first compound, second compound 0.316 µM): > 1000 nM | IC50 (curve of first compound, second compound 1 µM): > 1000 nM | IC50 (curve of first compound, second compound 3.16 µM): 29.9 nM | IC50 (curve of first compound, second compound 10 µM): > 1000 nM
SMILES: C=CC(=O)N1CCN(c2nc(OCC3CCCN3C)nc3c(F)c(-c4nc(N)cc(C)c4C(F)(F)F)c(Cl)cc23)C(C)C1 (stereo not drawn) + C#Cc1c(F)ccc2cc(O)cc(-c3ncc4c(N5CC6CCC(C5)N6)nc(OCC56CCCN5CC(F)C6)nc4c3F)c12
viability, T/C (second compound 0.0316 µM, first compound 0.00316 µM): 95.7% | viability, T/C (second compound 0.0316 µM, first compound 0.01 µM): 113% | viability, T/C (second compound 0.0316 µM, first compound 0.0316 µM): 95.9% | viability, T/C (second compound 0.0316 µM, first compound 0.1 µM): 66.7% | viability, T/C (second compound 0.0316 µM, first compound 0.316 µM): 71.1% | viability, T/C (second compound 0.0316 µM, first compound 1 µM): 91.7% | viability, T/C (second compound 0.1 µM, first compound 0.00316 µM): 83.9% | viability, T/C (second compound 0.1 µM, first compound 0.01 µM): 90.8% | viability, T/C (second compound 0.1 µM, first compound 0.0316 µM): 79.9% | viability, T/C (second compound 0.1 µM, first compound 0.1 µM): 57.2% | viability, T/C (second compound 0.1 µM, first compound 0.316 µM): 75.3% | viability, T/C (second compound 0.1 µM, first compound 1 µM): 76.5% | viability, T/C (second compound 0.316 µM, first compound 0.00316 µM): 80% | viability, T/C (second compound 0.316 µM, first compound 0.01 µM): 74.6% | viability, T/C (second compound 0.316 µM, first compound 0.0316 µM): 60.1% | viability, T/C (second compound 0.316 µM, first compound 0.1 µM): 62.3% | viability, T/C (second compound 0.316 µM, first compound 0.316 µM): 56.5% | viability, T/C (second compound 0.316 µM, first compound 1 µM): 63.3% | viability, T/C (second compound 1 µM, first compound 0.00316 µM): 60.6% | viability, T/C (second compound 1 µM, first compound 0.01 µM): 61.9% | viability, T/C (second compound 1 µM, first compound 0.0316 µM): 48.4% | viability, T/C (second compound 1 µM, first compound 0.1 µM): 50.7% | viability, T/C (second compound 1 µM, first compound 0.316 µM): 56.1% | viability, T/C (second compound 1 µM, first compound 1 µM): 61% | viability, T/C (second compound 3.16 µM, first compound 0.00316 µM): 56.4% | viability, T/C (second compound 3.16 µM, first compound 0.01 µM): 56.8% | viability, T/C (second compound 3.16 µM, first compound 0.0316 µM): 40.5% | viability, T/C (second compound 3.16 µM, first compound 0.1 µM): 51.1% | viability, T/C (second compound 3.16 µM, first compound 0.316 µM): 52.5% | viability, T/C (second compound 3.16 µM, first compound 1 µM): 54.5% | viability, T/C (second compound 10 µM, first compound 0.00316 µM): 51.2% | viability, T/C (second compound 10 µM, first compound 0.01 µM): 53.2% | viability, T/C (second compound 10 µM, first compound 0.0316 µM): 46.8% | viability, T/C (second compound 10 µM, first compound 0.1 µM): 48.6% | viability, T/C (second compound 10 µM, first compound 0.316 µM): 57.3% | viability, T/C (second compound 10 µM, first compound 1 µM): 53.4%
